Test results as given in BindingDB's records for patent US12077506 (Nikang Therapeutics, 2024).

Biological target: Endothelial PAS domain-containing protein 1 (Homo sapiens, UniProt Q99814)
Assay: VEGF ELISA Assay
Description: Four hours later, compounds were dispensed into wells by Tecan D300e digital dispenser with starting concentration of 10 uM and log of dilution down to 1 nM as final concentration. Each concentration of treatment was performed in duplicate. About 20 hours later, medium was removed and fresh medium was added, followed by compounds treatment as described above. After 24 hours, cell culture medium was collected to determine VEGF concentration using an ELISA kit (R&D systems, cat #DVE00) following the manufacturer's instruction.

Chain of Endothelial PAS domain-containing protein 1 (Q99814 whole entry, the tested form may be a part): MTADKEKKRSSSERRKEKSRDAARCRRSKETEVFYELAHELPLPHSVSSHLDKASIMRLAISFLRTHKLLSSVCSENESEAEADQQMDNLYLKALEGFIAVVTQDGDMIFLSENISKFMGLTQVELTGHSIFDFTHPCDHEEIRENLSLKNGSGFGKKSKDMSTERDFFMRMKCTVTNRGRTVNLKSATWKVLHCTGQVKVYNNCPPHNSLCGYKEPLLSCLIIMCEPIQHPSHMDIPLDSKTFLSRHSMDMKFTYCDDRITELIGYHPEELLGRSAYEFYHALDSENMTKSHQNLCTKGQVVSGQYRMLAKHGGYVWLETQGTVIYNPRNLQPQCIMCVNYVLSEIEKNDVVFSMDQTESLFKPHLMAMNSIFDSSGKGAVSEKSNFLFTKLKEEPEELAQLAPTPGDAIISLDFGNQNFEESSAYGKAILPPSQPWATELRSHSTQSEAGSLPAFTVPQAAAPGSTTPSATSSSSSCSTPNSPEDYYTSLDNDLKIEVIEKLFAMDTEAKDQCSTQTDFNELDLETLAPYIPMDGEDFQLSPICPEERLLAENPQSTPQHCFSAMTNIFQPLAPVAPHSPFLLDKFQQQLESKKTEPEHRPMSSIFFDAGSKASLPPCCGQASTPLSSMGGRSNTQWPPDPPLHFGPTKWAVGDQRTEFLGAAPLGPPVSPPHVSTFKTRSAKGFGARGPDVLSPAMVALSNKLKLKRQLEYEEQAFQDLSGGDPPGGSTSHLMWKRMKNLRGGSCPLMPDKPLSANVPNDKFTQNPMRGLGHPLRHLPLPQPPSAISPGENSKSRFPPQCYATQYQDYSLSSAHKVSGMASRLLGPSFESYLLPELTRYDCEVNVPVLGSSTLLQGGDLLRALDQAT

EC50: 4 nM
SMILES: OC1c2c(ccc(Oc3cc(F)cc(F)c3)c2C(F)F)C(F)(F)C1(F)F (stereo unspecified) [US12077506, Compound I-4]
